According to patent publication US9434711B2 (Janssen Pharmaceutica, NV, priority 2007, dated 2016):

Biological target: canine TRPM8 (Canis lupus familiaris, UniProt Q1A7N1)
Assay: In Vitro Canine TRPM8 Functional Assay (Ca2+ fluorescence, icilin activation)
Format: cell-based
Settings: for IC50: HEK293 cells stably expressing canine TRPM8, icilin activation, eight-point dose-response, read-out: IC50; for inhibition at 0.2 µM: compound at 0.2 μM, canine TRPM8, icilin activation, read-out: % Inh @ 0.2
Method in brief: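 HEK293 cells stably expressing canine TRPM8 were loaded with Calcium 3 dye (35 min at 37 °C, then 25 min at room temperature). Compound was added and Ca2+ fluorescence was read for 5 min before icilin at a concentration giving about 80% maximal response. EC50/IC50 came from eight-point dose-response curves, quadruplicate wells.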

canine TRPM8, sequence (Q1A7N1 1-1104): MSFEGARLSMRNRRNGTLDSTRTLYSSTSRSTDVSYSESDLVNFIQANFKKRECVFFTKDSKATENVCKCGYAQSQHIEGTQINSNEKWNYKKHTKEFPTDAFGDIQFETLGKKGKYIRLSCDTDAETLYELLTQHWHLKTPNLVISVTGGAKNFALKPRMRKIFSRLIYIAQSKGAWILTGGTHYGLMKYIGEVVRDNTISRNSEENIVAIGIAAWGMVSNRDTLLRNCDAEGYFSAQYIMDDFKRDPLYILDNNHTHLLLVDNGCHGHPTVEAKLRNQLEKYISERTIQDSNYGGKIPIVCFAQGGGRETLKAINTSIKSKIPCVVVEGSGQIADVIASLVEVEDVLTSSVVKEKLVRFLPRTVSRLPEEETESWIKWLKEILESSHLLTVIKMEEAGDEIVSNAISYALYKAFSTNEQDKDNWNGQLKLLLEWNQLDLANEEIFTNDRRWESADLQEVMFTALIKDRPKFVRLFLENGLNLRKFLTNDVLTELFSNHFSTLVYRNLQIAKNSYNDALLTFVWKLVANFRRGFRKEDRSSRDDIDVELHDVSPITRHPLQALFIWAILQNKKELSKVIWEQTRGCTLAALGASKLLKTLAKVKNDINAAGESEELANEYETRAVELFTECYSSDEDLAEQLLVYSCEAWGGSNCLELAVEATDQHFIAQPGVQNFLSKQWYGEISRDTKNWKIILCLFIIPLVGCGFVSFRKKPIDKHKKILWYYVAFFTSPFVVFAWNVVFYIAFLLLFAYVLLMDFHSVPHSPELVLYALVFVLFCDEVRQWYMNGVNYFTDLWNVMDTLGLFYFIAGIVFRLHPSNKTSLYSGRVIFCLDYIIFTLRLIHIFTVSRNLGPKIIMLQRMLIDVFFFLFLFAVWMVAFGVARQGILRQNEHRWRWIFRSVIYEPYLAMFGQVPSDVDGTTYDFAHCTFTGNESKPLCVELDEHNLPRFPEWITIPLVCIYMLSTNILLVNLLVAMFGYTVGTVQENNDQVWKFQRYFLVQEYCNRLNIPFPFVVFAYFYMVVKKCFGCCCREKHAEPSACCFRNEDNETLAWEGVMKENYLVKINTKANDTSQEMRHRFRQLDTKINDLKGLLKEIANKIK

Structure (SMILES): CCCCN(c1sc2ccccc2c1OC)S(=O)(=O)c1ccc(C(=O)OC)cc1 [Compound 422, N-(Butyl)-N-(3-methoxy-benzo[b]thiophen-2-yl)-4-carbomethoxybenzenesulfonamide]
- IC50: 0.018 µM
- inhibition at 0.2 µM: 97%

Structure (SMILES): CCCCN(c1sc2ccccc2c1OC)S(=O)(=O)c1ccc(C(=O)O)cc1 [Compound 423, N-(Butyl)-N-(3-methoxy-benzo[b]thiophen-2-yl)-4-carboxy-benzenesulfonamide]
- IC50: 0.007 µM
- inhibition at 0.2 µM: 93%

Structure (SMILES): O=S(=O)(c1ccc(-c2nnn[nH]2)cc1)N(Cc1ccc(F)c(C(F)(F)F)c1)c1cc2ccccc2s1 [Compound 424, N-(Benzo[b]thiophen-2-yl)-N-(4-fluoro-3-trifluoromethyl-benzyl)-4-(1H-tetrazol-5-yl)-benzenesulfonamide]
- IC50: 0.007 µM
- inhibition at 0.2 µM: 95%

Structure (SMILES): O=S(=O)(c1ccc(-c2nnn[nH]2)cc1)N(CCCC(F)(F)F)c1cc2ccccc2s1 [Compound 425, N-(Benzo[b]thiophen-2-yl)-N-(4,4,4-trifluoro-butyl)-4-(1H-tetrazol-5-yl)-benzenesulfonamide]
- IC50: 0.079 µM
- inhibition at 0.2 µM: 86%

Structure (SMILES): Cc1c(N(CCCC(F)(F)F)S(=O)(=O)c2ccc(C(=O)O)cc2)sc2cc(F)ccc12 [Compound 426, N-(6-Fluoro-3-methyl-benzo[b]thiophen-2-yl)-N-(4,4,4-trifluoro-butyl)-4-carboxy-benzenesulfonamide]
- IC50: 0.03 µM
- inhibition at 0.2 µM: 95%

Structure (SMILES): Cc1c(N(Cc2ccc(F)c(C(F)(F)F)c2)S(=O)(=O)c2ccc(C(=O)O)cc2)sc2cc(F)ccc12 [Compound 427, N-(6-Fluoro-3-methyl-benzo[b]thiophen-2-yl)-N-(4-fluoro-3-trifluoromethyl-benzyl)-4-carboxy-benzenesulfonamide]
- IC50: 0.005 µM
- inhibition at 0.2 µM: 95%

Structure (SMILES): CCCCN(c1sc2ccccc2c1Br)S(=O)(=O)c1ccc(-c2nnn[nH]2)cc1 [Compound 428, N-(3-Bromo-benzo[b]thiophen-2-yl)-N-(butyl)-4-(1H-tetrazol-5-yl)-benzenesulfonamide]
- IC50: 0.01 µM
- inhibition at 0.2 µM: 93%

Structure (SMILES): CCCCN(C1=Cc2ccccc2S1(=O)=O)S(=O)(=O)c1ccc(C(=O)OC)cc1 [Compound 430, N-(Butyl)-N-(1,1-dioxo-benzo[b]thiophen-2-yl)-4-carbomethoxy-benzenesulfonamide]
- inhibition at 0.2 µM: 52%

Structure (SMILES): O=S1(=O)C(N(Cc2ccc(F)c(C(F)(F)F)c2)S(=O)(=O)c2ccccc2)=C(Br)c2ccccc21 [Compound 431, N-(3-Bromo-1,1-dioxo-benzo[b]thiophen-2-yl)-N-(4-fluoro-3-trifluoromethyl-benzyl)-benzenesulfonamide]
- IC50: 0.02 µM
- inhibition at 0.2 µM: 88%

Structure (SMILES): CCCCN(C1=Cc2ccccc2S1(=O)=O)S(=O)(=O)c1ccc(C(=O)O)cc1 [Compound 432, N-(Butyl)-N-(1,1-dioxo-1H-benzo[b]thiophen-2-yl)-4-carboxy-benzenesulfonamide]
- inhibition at 0.2 µM: 42%

Structure (SMILES): CCCCN(C1=C(Br)c2ccccc2S1(=O)=O)S(=O)(=O)c1ccc(C(=O)OC)cc1 [Compound 433, N-(3-Bromo-1,1-dioxo-benzo[b]thiophen-2-yl)-N-(butyl)-4-carbomethoxy-benzenesulfonamide]
- IC50: 0.033 µM
- inhibition at 0.2 µM: 93%

Structure (SMILES): CCCCN(C1=C(OC)c2ccccc2S1(=O)=O)S(=O)(=O)c1ccc(C(=O)O)cc1 [Compound 434, N-(Butyl)-N-(3-methoxy-1,1-dioxo-1H-benzo[b]thiophen-2-yl)-4-carboxy-benzenesulfonamide]
- IC50: 0.017 µM
- inhibition at 0.2 µM: 90%

Structure (SMILES): CCCCN(C1=C(Br)c2ccccc2S1(=O)=O)S(=O)(=O)c1ccc(C(=O)O)cc1 [Compound 435, N-(Butyl)-N-(3-bromo-1,1-dioxo-1H-benzo[b]thiophen-2-yl)-4-carboxy-benzenesulfonamide]
- IC50: 0.033 µM
- inhibition at 0.2 µM: 95%
